Measurements as given in publication PMC7243081 (Slas Discovery, 2019).
Where two headings read alike, the source gives them in different places.

Columns and labels:
[1] = biological target: T1, α1, β2, and γ2s subunits of the rat GABAA receptors (HEK-GABA cells) (Rattus norvegicus, UniProt P18508+P62813+P63138); assay: QP-DHM blind agonist screen; assay type: cell-based
GABAA receptor = conditions: cited from earlier work; for IC50: read-out: reported IC50
[2] = tested on: human α1β2γ2L GABAA receptor subunits in L(tk−) cells; conditions: L(tk−) cells stably transfected with human α1β2γ2L; cited from earlier work
[3] = biological target: GABAA receptor (α1, β2, and γ2s subunits, HEK-GABA) (Rattus norvegicus, UniProt P18508+P62813+P63138); assay type: cell-based
[4] = biological target: T1, α1, β2, and γ2s subunits of the rat GABAA receptors (HEK-GABA cells); assay: QP-DHM modulator mode; assay type: cell-based; conditions: maximum concentration of compound, with GABA at EC30, Fig. 3D
[5] = tested on: α1β2γ2 expressed in Xenopus oocytes; conditions: read-out: EC50 as modulator; cited from earlier work
Wild-type HEK cells = conditions: patch clamp; cited from earlier work
[6] = biological target: T1, α1, β2, and γ2s subunits of the rat GABAA receptors (HEK-GABA cells); assay: Whole-cell electrophysiology recording on HEK-GABA cells; assay type: cell-based; conditions: electrophysiology vs QP-DHM
[7] = Table 1, dose-response curves of validated hits

T1 sequence (P62813 28-455): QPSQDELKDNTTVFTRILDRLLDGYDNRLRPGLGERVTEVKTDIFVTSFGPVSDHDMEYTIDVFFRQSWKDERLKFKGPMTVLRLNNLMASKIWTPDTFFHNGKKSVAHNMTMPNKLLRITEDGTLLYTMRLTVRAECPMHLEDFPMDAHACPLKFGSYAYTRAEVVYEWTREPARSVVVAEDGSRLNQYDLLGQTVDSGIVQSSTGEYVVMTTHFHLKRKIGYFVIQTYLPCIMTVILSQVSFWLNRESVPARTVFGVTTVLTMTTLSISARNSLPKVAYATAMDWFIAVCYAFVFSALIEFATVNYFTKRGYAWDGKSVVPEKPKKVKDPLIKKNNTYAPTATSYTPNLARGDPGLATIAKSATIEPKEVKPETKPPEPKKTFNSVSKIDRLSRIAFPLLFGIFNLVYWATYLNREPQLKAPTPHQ
T1 sequence (P63138 25-474 limits assumed): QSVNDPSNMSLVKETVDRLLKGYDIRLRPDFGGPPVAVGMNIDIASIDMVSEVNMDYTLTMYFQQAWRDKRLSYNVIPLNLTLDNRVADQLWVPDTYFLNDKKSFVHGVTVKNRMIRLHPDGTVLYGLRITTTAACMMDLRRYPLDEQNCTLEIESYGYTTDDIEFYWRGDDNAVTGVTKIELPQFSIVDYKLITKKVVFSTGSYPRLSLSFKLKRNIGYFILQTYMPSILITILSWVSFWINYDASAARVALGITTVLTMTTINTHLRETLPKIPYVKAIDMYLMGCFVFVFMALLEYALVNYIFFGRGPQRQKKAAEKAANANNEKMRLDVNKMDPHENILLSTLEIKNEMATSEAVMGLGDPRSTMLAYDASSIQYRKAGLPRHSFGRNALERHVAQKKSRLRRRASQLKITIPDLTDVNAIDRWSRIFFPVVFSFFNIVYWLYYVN
T1 sequence (P18508 39-466): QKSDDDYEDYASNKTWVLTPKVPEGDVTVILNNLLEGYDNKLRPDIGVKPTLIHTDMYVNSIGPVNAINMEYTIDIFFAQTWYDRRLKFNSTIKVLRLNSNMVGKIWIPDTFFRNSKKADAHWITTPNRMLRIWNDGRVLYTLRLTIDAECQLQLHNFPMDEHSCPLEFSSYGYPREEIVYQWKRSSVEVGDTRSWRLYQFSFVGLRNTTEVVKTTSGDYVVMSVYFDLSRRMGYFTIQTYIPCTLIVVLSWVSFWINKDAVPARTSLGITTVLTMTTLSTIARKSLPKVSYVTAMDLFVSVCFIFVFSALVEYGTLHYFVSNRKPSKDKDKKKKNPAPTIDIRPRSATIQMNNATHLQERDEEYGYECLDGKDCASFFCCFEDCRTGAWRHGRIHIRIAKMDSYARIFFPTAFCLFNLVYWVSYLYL
Sequence of GABAA receptor (α1, β2, and γ2s subunits, HEK-GABA) (P62813 28-455): as the sequence (P62813 28-455) above
Sequence of GABAA receptor (α1, β2, and γ2s subunits, HEK-GABA) (P63138 25-474 limits assumed): as the sequence (P63138 25-474 limits assumed) above
Sequence of GABAA receptor (α1, β2, and γ2s subunits, HEK-GABA) (P18508 39-466): as the sequence (P18508 39-466) above

NCc1cc(=O)[nH]o1 [Muscimol]
EC50 [1]: 200 nM
Amplitude (%) [1, 7]: 100%
Hill Coefficient [1, 7]: 1.9

COc1ccc(-c2ccc(=N)n(CCCC(=O)O)n2)cc1 [Gabazine]
IC50 (GABAA receptor; in the presence of 3 μM GABA): ~200 nM

CN1CCc2cc3c(cc2[C@H]1[C@@H]1OC(=O)c2c1ccc1c2OCO1)OCO3 [(+)-Bicuculline]
IC50 (GABAA receptor; in the presence of 3 μM GABA): 900 nM
IC50 (GABAA receptor; in the presence of 10 μM GABA): 530 nM

COc1cc2c(c(OC)c1OC)-c1ccc(OC)c(=O)cc1[C@@H](NC(C)=O)CC2 [Colchicine]
effect on GABA currents [2]: significantly inhibits GABA currents

CC[C@]1(O)C[C@@H]2CN(CCc3c([nH]c4ccccc34)[C@@](C(=O)OC)(c3cc4c(cc3OC)N(C)[C@H]3[C@@](O)(C(N)=O)[C@H](O)[C@]5(CC)C=CCN6CC[C@]43[C@@H]65)C2)C1 [STOCK1N-75293, Vindesine]
outcome of hits validation (activity and specificity for the GABAA receptor) [3]: marginal effect

CCN(C(C)=O)c1cccc(-c2ccnc3c(C#N)cnn23)c1 [Zaleplon]
effect of GABA increased to % of the maximum (GABA at 10 µM) [4]: 41%
EC50 [5]: 170 nM

NCCCC(=O)O [GABA]
electrophysiological response of wild-type HEK cells (Wild-type HEK cells): no electrophysiological response

Ivermectin
EC50 with electrophysiology relative to QP-DHM (fold higher) [6]: ~ 10 ×
rise time relative to GABA (times longer) (GABAA receptor): about 500 times

Picrotoxin
IC50 (GABAA receptor; in the presence of 10 μM GABA): 3100 nM

CC[C@H](C)[C@H]1O[C@]2(C=C[C@@H]1C)C[C@@H]1C[C@@H](C/C=C(\C)[C@@H](O[C@H]3C[C@H](OC)[C@@H](O[C@H]4C[C@H](OC)[C@@H](O)[C@H](C)O4)[C@H](C)O3)[C@@H](C)/C=C/C=C3\CO[C@@H]4[C@H](O)C(C)=C[C@@H](C(=O)O1)[C@]34O)O2 [Avermectin B1a]
EC50 with electrophysiology relative to QP-DHM (fold higher) [6]: ~ 10 ×
EC50 [1]: 6900 nM
Amplitude (%) [1, 7]: 94%
Hill Coefficient [1, 7]: 6.3
Amplitude (%) ([1]; Table 2, avermectin family): 94%
Hill Coefficient ([1]; Table 2, avermectin family): 6.3

CC(=O)OC1CCC2(C)C(CCC3C4CCC(C(C)=O)C4(C)CC(=O)C32)C1 (stereo not drawn)
result in blind agonist screen ([1]; natural products collection): negative
